This note sets out measurements from patent publication US9701676B2, “Pro-neurogenic compounds” (Board of Regents of The University of Texas System, priority 2012, dated 2017).

This assay concerns proliferating neural precursor cells in the hippocampus (subgranular layer of the dentate gyrus). Kind of assay: standard in vivo hippocampal neurogenesis assay (BrdU labelling, week-long intracranial mini-pump infusion). To be noted: 10 μM concentration, seven days of infusion at 0.5 μL/hour, daily IP BrdU; four 12 week old adult male C57/B6 mice; vehicle 14.5. More on the design: species or system mouse (C57/B6). How it is done: Compounds were administered at a concentration of 10 μM for each molecule. After seven days of infusion at a constant rate of 0.5 μL/hour, a total of 84 μL of volume will have left the pump (0.00084 μMoles) and entered the cerebrospinal fluid. The average volume of a brain from a 12 week old male, C57/B6 mouse in the study is 500 mm^3. […] Under these conditions, at the end of one week of infusion each compound would be present at 1.7 μMolar concentration. Since the actual amount of chemical compound in the brain is likely to be only a fraction of this predicted level, it is reasonable to estimate that compounds were administered at mid to low-nanomolar concentrations.
During compound infusion, animals were intraperitoneally (IP) injected daily with the thymidine analog, bromodeoxyuridine (BrdU), as a means of scoring the birth and survival of proliferating neural precursor cells in the hippocampus. Because both social interaction and voluntary exercise are known to stimulate hippocampal neurogenesis, mice were housed individually without access to running wheels throughout the screening period. Following the week-long period of compound administration, animals were perfused and sacrificed. Dissected brain tissue was fixed, embedded, sectioned, stained with antibodies to BrdU, and evaluated by light microcopy as a means of quantifying neurogenesis and survival of newborn neural precursor cells localized to the subgranular layer of the dentate gyms on the brain hemisphere contralateral to the side of mini-pump cannulation. Every fifth section throughout the entire rostral-caudal extent of the hippocampus was analyzed, and the total number of BrdU+ cells was normalized against the measured volume of the dentate gyms.
Intracranial infusions of either fibroblast growth factor 2 (FGF-2) or artificial cerebral spinal fluid (aCSF) vehicle via the same, week-long protocol were employed as positive and negative controls.
Compounds were evaluated for pro-neurogenic efficacy/neuroprotection in a standard in vivo hippocampal neurogenesis assay at 10 μM concentration in four 12 week old adult male C57/B16 mice.
In general terms: Incorporation of labelled thymidine or its analogues reports DNA synthesis.
`Cn1c2ccc(Br)cc2c2cc(Br)ccc21` [P7C3-S163, 3,6-dibromo-9-methyl-9H-carbazole]: the “(×10^−06) BrdU+ cells/mm^3 dentate gyrus” value is on record as 24.2 (×10^−06) BrdU+ cells/mm^3.

For `CC(C)(O)Cn1c2ccc(Br)cc2c2cc(Br)ccc21` [P7C3-S169, 1-(3,6-dibromo-9H-carbazol-9-yl)-2-methylpropan-2-ol], the “(×10^−06) BrdU+ cells/mm^3 dentate gyrus” value is reported as 18.4 (×10^−06) BrdU+ cells/mm^3.

As to `OC(CN1c2ccccc2CCc2ccccc21)CN1c2ccccc2CCc2ccccc21` [P7C3-S170, 1,3-bis(10,11-dihydro-5H-dibenzo[b,f]azepin-5-yl)propan-2-ol], the “(×10^−06) BrdU+ cells/mm^3 dentate gyrus” value is listed as 22.4 (×10^−06) BrdU+ cells/mm^3.

With `OCCn1c2ccc(Br)cc2c2cc(Br)ccc21` [P7C3-S171, 2-(3,6-dibromo-9H-carbazol-9-yl)ethanol], the “(×10^−06) BrdU+ cells/mm^3 dentate gyrus” value is 26.2 (×10^−06) BrdU+ cells/mm^3.

Turning to `OC(CNc1cccc2ccccc12)Cn1c(-c2ccccc2)cc2ccccc21` (stereo not drawn) [P7C3-S185, 1-(naphthalen-1-ylamino)-3-(2-phenyl-1H-indol-1-yl)propan-2-ol], the “(×10^−06) BrdU+ cells/mm^3 dentate gyrus” value is given as 25.1 (×10^−06) BrdU+ cells/mm^3.

Turning to `[N-]=[N+]=NCC(F)Cn1c2ccc(Br)cc2c2cc(Br)ccc21` (stereo not drawn) [P7C3-S189, 9-(3-azido-2-fluoropropyl)-3,6-dibromo-9H-carbazole], the “(×10^−06) BrdU+ cells/mm^3 dentate gyrus” value is given as 13.7 (×10^−06) BrdU+ cells/mm^3.

`COc1ccc2[nH]cc(CCNC(C)=O)c2c1` [P7C3-S193, Melatonin, reference compound]: the “(×10^−06) BrdU+ cells/mm^3 dentate gyrus” value is 15.6 (×10^−06) BrdU+ cells/mm^3.

As for `CCOC(=O)C1=C[C@]2(CC)CCCN3CCc4c(n1c1ccccc41)[C@@H]32` [P7C3-S199, Vinpocetine, reference compound], the “(×10^−06) BrdU+ cells/mm^3 dentate gyrus” value is 26.5 (×10^−06) BrdU+ cells/mm^3.

`CCC(C)N(C)C(=O)c1cc2ccccc2c(-c2ccccc2Cl)n1` (stereo not drawn) [P7C3-S200, PK 11195, reference compound]: the “(×10^−06) BrdU+ cells/mm^3 dentate gyrus” value is on record as 22.1 (×10^−06) BrdU+ cells/mm^3.

With `CCCCCCN(CCCCCC)C(=O)Cc1c(-c2ccc(F)cc2)[nH]c2ccccc12` [P7C3-S201, N,N-Dihexyl-2-(4-fluorophenyl)indole-3-acetamide, reference compound], the “(×10^−06) BrdU+ cells/mm^3 dentate gyrus” value is listed as 24.8 (×10^−06) BrdU+ cells/mm^3.

On to `CN1C(=O)CN=C(c2ccc(Cl)cc2)c2cc(Cl)ccc21` [P7C3-S203, 4′-chlorodiazepam, reference compound], for which the “(×10^−06) BrdU+ cells/mm^3 dentate gyrus” value was 21.5 (×10^−06) BrdU+ cells/mm^3.

As to `O=C(O)c1cc2c(cn1)[nH]c1ccc(Br)cc12` [P7C3-S206, 6-bromo-9H-pyrido[3,4-b]indole-3-carboxylic acid], the “(×10^−06) BrdU+ cells/mm^3 dentate gyrus” value is given as 29.6 (×10^−06) BrdU+ cells/mm^3.

As for `COc1ccc2[nH]c3ccc(Br)cc3c2c1` [P7C3-S209, 3-bromo-6-methoxy-9H-carbazole], the “(×10^−06) BrdU+ cells/mm^3 dentate gyrus” value was 30 (×10^−06) BrdU+ cells/mm^3.

`O=C(O)CN1c2ccccc2CCc2ccccc21` [P7C3-S210, 2-(10,11-dihydro-5H-dibenzo[b,f]azepin-5-yl)acetic acid]: the “(×10^−06) BrdU+ cells/mm^3 dentate gyrus” value was 21.4 (×10^−06) BrdU+ cells/mm^3.

For the compound `CC(C(=O)O)n1c2ccc(Br)cc2c2cc(Br)ccc21` (stereo not drawn) [P7C3-S211, 2-(3,6-dibromo-9H-carbazol-9-yl)propanoic acid], the “(×10^−06) BrdU+ cells/mm^3 dentate gyrus” value was 23 (×10^−06) BrdU+ cells/mm^3.

As to `c1ccc2c(c1)CCc1ccccc1N2` [P7C3-S212, iminodibenzyl, reference compound], the “(×10^−06) BrdU+ cells/mm^3 dentate gyrus” value was 20.5 (×10^−06) BrdU+ cells/mm^3.

Regarding `N#Cc1ccc2[nH]c3ccc(Br)cc3c2c1` [P7C3-S216, 6-bromo-9H-carbazole-3-carbonitrile], the “(×10^−06) BrdU+ cells/mm^3 dentate gyrus” value was 25.9 (×10^−06) BrdU+ cells/mm^3.

For `N#Cc1[nH]c2ccc(Br)cc2c1N` [P7C3-S222, 3-amino-5-bromo-1H-indole-2-carbonitrile], the “(×10^−06) BrdU+ cells/mm^3 dentate gyrus” value is 30.1 (×10^−06) BrdU+ cells/mm^3.

Consider `N#Cc1ccc2c(c1)c1cc(Br)ccc1n2CC(=O)O` [P7C3-S224, 2-(3-bromo-6-cyano-9H-carbazol-9-yl)acetic acid], for which the “(×10^−06) BrdU+ cells/mm^3 dentate gyrus” value was 20.2 (×10^−06) BrdU+ cells/mm^3.

As for `O=C(O)c1ccc2[nH]c3ccc(Br)cc3c2c1` [P7C3-S225, 6-bromo-9H-carbazole-3-carboxylic acid], the “(×10^−06) BrdU+ cells/mm^3 dentate gyrus” value is given as 30.4 (×10^−06) BrdU+ cells/mm^3.

For the compound `O=C(O)Cn1c2ccc(Br)cc2c2cc(C(=O)O)ncc21` [P7C3-S227, 6-bromo-9-(carboxymethyl)-9H-pyrido[3,4-b]indole-3-carboxylic acid], the “(×10^−06) BrdU+ cells/mm^3 dentate gyrus” value is 25.8 (×10^−06) BrdU+ cells/mm^3.

As to `Cc1ccc2[nH]c3ccc(Br)cc3c2c1` [P7C3-S228, 3-bromo-6-methyl-9H-carbazole], the “(×10^−06) BrdU+ cells/mm^3 dentate gyrus” value was 40.3 (×10^−06) BrdU+ cells/mm^3.

Consider `O=C(Cn1c2ccc(Br)cc2c2cc(Br)ccc21)NS(=O)(=O)c1ccccc1` [P7C3-S230, 2-(3,6-dibromo-9H-carbazol-9-yl)-N-(phenylsulfonyl)acetamide], for which the “(×10^−06) BrdU+ cells/mm^3 dentate gyrus” value is 30.5 (×10^−06) BrdU+ cells/mm^3.

As for `O=C(Cn1c2ccc(Br)cc2c2cc(Br)ccc21)NO` [P7C3-S231, 2-(3,6-dibromo-9H-carbazol-9-yl)-N-hydroxyacetamide], the “(×10^−06) BrdU+ cells/mm^3 dentate gyrus” value is given as 26.1 (×10^−06) BrdU+ cells/mm^3.

For the compound `CS(=O)(=O)NC(=O)Cn1c2ccc(Br)cc2c2cc(Br)ccc21` [P7C3-S232, 2-(3,6-dibromo-9H-carbazol-9-yl)-N-(methylsulfonyl)acetamide], the “(×10^−06) BrdU+ cells/mm^3 dentate gyrus” value is listed as 16.8 (×10^−06) BrdU+ cells/mm^3.

For the compound `N#CCn1c2ccc(Br)cc2c2cc(Br)ccc21` [P7C3-S235, 2-(3,6-dibromo-9H-carbazol-9-yl)acetonitrile], the “(×10^−06) BrdU+ cells/mm^3 dentate gyrus” value is given as 23.4 (×10^−06) BrdU+ cells/mm^3.

Take `Cc1ccc2[nH]c3ccc(C)cc3c2c1` [P7C3-S237, 3,6-dimethyl-9H-carbazole]: the “(×10^−06) BrdU+ cells/mm^3 dentate gyrus” value is listed as 23.5 (×10^−06) BrdU+ cells/mm^3.

For the compound `NC(=O)c1ccc2c(c1)c1cc(Br)ccc1n2CC(=O)O` [P7C3-S238, 2-(3-bromo-6-carbamoyl-9H-carbazol-9-yl)acetic acid], the “(×10^−06) BrdU+ cells/mm^3 dentate gyrus” value was 18.8 (×10^−06) BrdU+ cells/mm^3.

Consider `O=C(O)Cn1c2ccc(Br)cc2c2cc(C(=O)O)ccc21` [P7C3-S239, 6-bromo-9-(carboxymethyl)-9H-carbazole-3-carboxylic acid], for which the “(×10^−06) BrdU+ cells/mm^3 dentate gyrus” value is reported as 22.8 (×10^−06) BrdU+ cells/mm^3.

Consider `Cc1ccc2c(c1)c1cc(Br)ccc1n2CC(=O)O` [P7C3-S240, 2-(3-bromo-6-methyl-9H-carbazol-9-yl)acetic acid], for which the “(×10^−06) BrdU+ cells/mm^3 dentate gyrus” value is 28.5 (×10^−06) BrdU+ cells/mm^3.

With `O=C(O)CCc1c[nH]c2ccccc12` [P7C3-S242, 3-indolepropionic acid, reference compound], the “(×10^−06) BrdU+ cells/mm^3 dentate gyrus” value is 21.5 (×10^−06) BrdU+ cells/mm^3.

In the case of `CN(C)c1nc(O)c2[nH]c3ccccc3c2n1` [P7C3-S245, 2-(dimethylamino)-5H-pyrimido[5,4-b]indol-4-ol], the “(×10^−06) BrdU+ cells/mm^3 dentate gyrus” value is listed as 32.4 (×10^−06) BrdU+ cells/mm^3.

As to `CCOC(=O)c1ncc2c(n1)c1ccccc1n2S(=O)(=O)c1ccc(C)cc1` [P7C3-S246, ethyl 5-tosyl-5H-pyrimido[5,4-b]indole-2-carboxylate], the “(×10^−06) BrdU+ cells/mm^3 dentate gyrus” value is recorded as 29 (×10^−06) BrdU+ cells/mm^3.
